Reference: the supplement of paper PMC10307832

Assays:
Experiment in all cases: relative viability (nuclei count vs DMSO), 5 days (fraction); higher = more cells survive
Avagacestat + AZD7762 = compound: NC(=O)[C@@H](CCC(F)(F)F)N(Cc1ccc(-c2ncon2)cc1F)S(=O)(=O)c1ccc(Cl)cc1 [Avagacestat] + NC(=O)Nc1cc(-c2cccc(F)c2)sc1C(=O)N[C@H]1CCCNC1 [AZD7762] (partner 0.2 µM)
Procedure, shortened: (§1)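 Lung cancer cell lines in 1536-well plates got either a single drug or a fixed anchor-drug dose together with five library-drug doses (not always all listed) in √10 steps, by pin tool, on the day after seeding. Nuclei were counted after 5 days, and relative viability is the treated-to-vehicle ratio of nuclei counts. Values are medians of duplicate plates.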

Avagacestat + Decitabine = compound: NC(=O)[C@@H](CCC(F)(F)F)N(Cc1ccc(-c2ncon2)cc1F)S(=O)(=O)c1ccc(Cl)cc1 [Avagacestat] + Nc1ncn([C@H]2C[C@H](O)[C@@H](CO)O2)c(=O)n1 [Decitabine] (partner 2 µM)
Procedure, shortened: as §1

Avagacestat + Tozasertib = compound: NC(=O)[C@@H](CCC(F)(F)F)N(Cc1ccc(-c2ncon2)cc1F)S(=O)(=O)c1ccc(Cl)cc1 [Avagacestat] + Cc1cc(Nc2cc(N3CCN(C)CC3)nc(Sc3ccc(NC(=O)C4CC4)cc3)n2)n[nH]1 [Tozasertib] (partner 0.1 µM)
Procedure, shortened: as §1

Avagacestat + Bortezomib = compound: NC(=O)[C@@H](CCC(F)(F)F)N(Cc1ccc(-c2ncon2)cc1F)S(=O)(=O)c1ccc(Cl)cc1 [Avagacestat] + CC(C)C[C@H](NC(=O)[C@H](Cc1ccccc1)NC(=O)c1cnccn1)B(O)O [Bortezomib] (partner 0.002 µM)
Procedure, shortened: as §1

| Cell Line | relative viability (Avagacestat + AZD7762; first compound 0.08 µM) | relative viability (Avagacestat + AZD7762; first compound 0.253 µM) | relative viability (Avagacestat + AZD7762; first compound 0.8 µM) | relative viability (Avagacestat + AZD7762; first compound 2.53 µM) | relative viability (Avagacestat + AZD7762; first compound 8 µM) | relative viability (Avagacestat + Decitabine; first compound 0.08 µM) | relative viability (Avagacestat + Decitabine; first compound 0.253 µM) | relative viability (Avagacestat + Decitabine; first compound 0.8 µM) | relative viability (Avagacestat + Decitabine; first compound 2.53 µM) | relative viability (Avagacestat + Decitabine; first compound 8 µM) | relative viability (Avagacestat + Tozasertib; first compound 0.08 µM) | relative viability (Avagacestat + Tozasertib; first compound 0.253 µM) | relative viability (Avagacestat + Tozasertib; first compound 0.8 µM) | relative viability (Avagacestat + Tozasertib; first compound 2.53 µM) | relative viability (Avagacestat + Tozasertib; first compound 8 µM) | relative viability (Avagacestat + Bortezomib; first compound 0.08 µM) | relative viability (Avagacestat + Bortezomib; first compound 0.253 µM) | relative viability (Avagacestat + Bortezomib; first compound 0.8 µM) | relative viability (Avagacestat + Bortezomib; first compound 2.53 µM) | relative viability (Avagacestat + Bortezomib; first compound 8 µM) |
| --- | --- | --- | --- | --- | --- | --- | --- | --- | --- | --- | --- | --- | --- | --- | --- | --- | --- | --- | --- | --- |
| NCI-H1915 | 0.694 | 0.72 | 0.74 | 0.806 | 0.678 | 0.259 | 0.266 | 0.283 | 0.237 | 0.265 | 0.51 | 0.48 | 0.464 | 0.393 | 0.398 | 1.02 | 1.11 | 1.13 | 1 | 0.951 |
| NCI-H650 | 1.06 | 0.963 | 1.19 | 1.09 | 0.822 | 0.33 | 0.324 | 0.317 | 0.328 | 0.367 | 0.872 | 0.973 | 0.761 | 0.65 | 0.702 | 1.08 | 0.948 | 1.16 | 1.03 | 0.735 |
| NCI-H1355 | 0.98 | 0.777 | 0.809 | 0.654 | 0.699 | 0.357 | 0.329 | 0.371 | 0.344 | 0.309 | 0.523 | 0.534 | 0.593 | 0.454 | 0.392 | 1.37 | 1.38 | 1.33 | 1.14 | 1.1 |
| HOP-62 | 0.811 | 0.714 | 0.62 | 0.53 | 0.47 | 0.211 | 0.229 | 0.194 | 0.221 | 0.218 | 0.357 | 0.353 | 0.373 | 0.363 | 0.335 | 0.783 | 0.819 | 0.727 | 0.513 | 0.709 |
| ChaGo-K-1 | 0.896 | 0.855 | 0.818 | 0.794 | 0.733 | 0.558 | 0.526 | 0.492 | 0.516 | 0.49 | 0.198 | 0.238 | 0.22 | 0.212 | 0.226 | 1.02 | 0.914 | 1.14 | 1.32 | 1.06 |
| NCI-H23 | 0.227 | 0.229 | 0.219 | 0.282 | 0.225 | 0.416 | 0.316 | 0.308 | 0.328 | 0.272 | 0.378 | 0.535 | 0.406 | 0.362 | 0.359 | 1.19 | 1.42 | 1.12 | 1 | 0.822 |
| EMC-BAC-2 | 1.23 | 1.33 | 1.28 | 0.976 | 1.21 | 1.1 | 1.06 | 1.09 | 1.07 | 1.07 | 0.278 | 0.299 | 0.31 | 0.255 | 0.322 | 1.22 | 1.17 | 1.23 | 1.08 | 1.11 |
| NCI-H2347 | 0.707 | 0.783 | 0.743 | 0.696 | 0.587 | 0.661 | 0.654 | 0.631 | 0.553 | 0.6 | 0.452 | 0.52 | 0.526 | 0.519 | 0.503 | 1.1 | 0.914 | 0.935 | 0.862 | 0.79 |
| LCLC-103H | 0.815 | 0.759 | 0.837 | 0.68 | 0.688 | 0.753 | 0.76 | 0.776 | 0.561 | 0.583 | 0.58 | 0.55 | 0.512 | 0.391 | 0.449 | 1.01 | 1.07 | 1.03 | 1.07 | 1.04 |
| HCC-15 | 1.21 | 1.22 | 1.3 | 1.16 | 1.38 | 0.791 | 0.745 | 0.705 | 0.575 | 0.523 | 0.404 | 0.461 | 0.434 | 0.337 | 0.167 | 1.22 | 1.21 | 1.24 | 0.973 | 0.921 |
| NCI-H3122 | 1.09 | 1.11 | 0.997 | 0.908 | 0.964 | 0.513 | 0.428 | 0.445 | 0.402 | 0.37 | 0.446 | 0.517 | 0.419 | – | 0.384 | 1.06 | 1.03 | 1.05 | 1.01 | 0.969 |
| NCI-H2087 | 1.41 | 1.65 | 1.31 | 1.24 | 1.18 | 0.3 | 0.279 | 0.374 | 0.25 | 0.257 | 0.218 | 0.286 | 0.277 | 0.248 | 0.237 | 0.946 | 1.05 | 0.917 | 0.918 | 0.8 |
| LC-2-ad | 0.947 | 0.927 | 0.843 | 0.761 | 0.616 | 0.837 | 0.839 | 0.867 | 0.833 | 0.776 | 0.453 | 0.384 | 0.427 | 0.197 | 0.367 | 1.16 | 1.12 | 1.04 | 0.934 | 0.941 |
| H3255 | 1.02 | 0.988 | 1.22 | 0.928 | 0.775 | 0.619 | 0.731 | 0.678 | 0.591 | 0.542 | 0.529 | 0.55 | 0.825 | 0.556 | 0.693 | 1.02 | 0.966 | 1.08 | 0.817 | 0.788 |
| NCI-H727 | 0.678 | 0.651 | 0.78 | 0.651 | 0.784 | 0.889 | 0.815 | 1.06 | 0.836 | 0.875 | 0.614 | 0.686 | 0.592 | 0.489 | 0.489 | 0.956 | 0.927 | 1.04 | 0.981 | 0.828 |
| LCLC-97TM1 | 0.165 | 0.397 | 0.205 | 0.264 | 0.272 | 0.25 | 0.214 | 0.229 | 0.217 | 0.203 | 0.221 | 0.206 | 0.208 | 0.183 | 0.181 | 0.98 | 0.625 | 1.38 | 0.786 | 0.482 |
| LU99A | 0.422 | 0.407 | 0.314 | 0.341 | 0.329 | 0.835 | 0.98 | 0.964 | 0.772 | 0.816 | 0.246 | 0.238 | 0.244 | 0.235 | 0.273 | 1.28 | 1.13 | 0.938 | 1.1 | 1.19 |
| NCI-H1651 | 0.531 | 0.538 | 0.561 | 0.441 | 0.36 | 0.636 | 0.665 | 0.734 | 0.611 | 0.607 | 0.955 | 0.862 | 0.719 | 0.609 | 0.585 | 1.06 | 1.07 | 1.05 | 0.944 | 0.933 |
| NCI-H322M | 0.609 | 0.542 | 0.496 | 0.503 | 0.588 | 0.736 | 0.626 | 0.729 | 0.629 | 0.611 | 0.491 | 0.51 | 0.5 | 0.454 | 0.474 | 1.27 | 1.23 | 1.4 | 1.05 | 1.17 |
| NCI-H1666 | 1 | 0.88 | 1 | 0.93 | 0.876 | 0.892 | 0.858 | 0.953 | 0.81 | 0.882 | 0.726 | 0.602 | 0.706 | 0.582 | 0.586 | 0.942 | 0.78 | 0.861 | 0.83 | 0.842 |
| NCI-H2126 | 1.02 | 0.979 | 1.01 | 0.912 | 1.02 | 0.615 | 0.661 | 0.577 | 0.575 | 0.611 | 0.81 | 0.859 | 0.906 | 0.334 | 0.778 | 1.15 | 1.1 | 1.1 | 1.18 | 1.02 |
